“Also recorded” adds a separate entry of the source.
What was measured:
Format in all cases: in vivo
[1] = system: Musca domestica larvae and pupae; experiment: Test 5: mortality of M. domestica, wood shavings impregnated with cyromazine formulations on horse manure
Description: The absorbent substrate impregnated were wood shavings of the “Great Northern” pine tree, which are the most commonly used for horse litters.
For the effectiveness studies, the formulations for impregnating the wood shavings were applied manually by means of a container with a spray gun. Several sprayings were carried out, turning the wood shavings halfway to ensure that they were homogeneously impregnated.
The organic matter used was rabbit excrement in the first two tests with pyriproxyfen, due to its increased availability and high infestation with fly larvae. For tests 3 and 4 with pyriproxyfen and the test carried out with cyromazine, horse excrement was used since it is the main object on which the product is applied. In both cases, manure with high levels of fly larvae infestation was selected in order to obtain a suitable number of larvae per test. […]
In the case of the test with cyromazine, after the 5 days of exposure the dead pupae and larvae were separated. Once the adults emerged, the dead larvae, the unviable pupae and the adults that emerged (healthy and malformed) were counted in order to calculate the mortality rate for each case. […]

[2] = system: Musca domestica larvae and pupae; experiment: Test 1: pupal mortality of M. domestica, wood shavings impregnated with pyriproxyfen/diflubenzuron formulations on rabbit manure
Description: (§1) The organic matter used was rabbit excrement in the first two tests with pyriproxyfen, due to its increased availability and high infestation with fly larvae. […] In both cases, manure with high levels of fly larvae infestation was selected in order to obtain a suitable number of larvae per test. […]
(§2) In the case of the tests of litters with pyriproxyfen, after 5 days of exposure (enough time for the larvae to progress to the pupal stage), the pupae were separated in plastic cups covered with a net, waiting for the adults to emerge. Once the adults emerged, the unviable pupae and the adults that emerged (healthy and malformed) were counted in order to calculate the mortality rate for each case. […]

[3] = system: Musca domestica larvae and pupae; experiment: Test 4: pupal mortality of M. domestica, wood shavings impregnated with low-concentration pyriproxyfen formulations on horse manure
Description: as §1, §2

Nc1nc(N)nc(NC2CC2)n1 [cyromazine]
effectiveness (in words) [1]: effective in low doses

O=C(NC(=O)c1c(F)cccc1F)Nc1ccc(Cl)cc1 [diflubenzuron]
mortality results / effectiveness (in words) [2]: effective in low doses

CC(COc1ccc(Oc2ccccc2)cc1)Oc1ccccn1 (stereo not drawn) [pyriproxyfen]
effectiveness as a pupicide (in words) [3]: good effectiveness; also recorded: effective in low doses
